# Assays:
# Test in all cases: In vitro antibacterial activity, agar dilution MIC
# Assay type in all cases: cell-based
# [1] = tested on: Streptococcus pyogenes PIU 2548; settings: code NN: Streptococcus pyogenes PIU 2548; BHI agar, 35-37° C., 20 to 24 hours; unit assumed
# Method: (§1) Representative compounds of the present invention were assayed in vitro for antibacterial activity as follows: Twelve petri dishes containing successive aqueous dilutions of the test compound mixed with 10 mL of sterilized Brain Heart Infusion (BHI) agar (Difco 0418-01-5) were prepared. Each plate was inoculated with 1:100 (or 1:10 for slow-growing strains, such as Micrococcus and Streptococcus) dilutions of up to 32 different microorganisms, using a Steers replicator block. The inoculated plates were incubated at 35-37° C. for 20 to 24 hours. In addition, a control plate, using BHI agar containing no test compound, was prepared and incubated at the beginning and end of each test.
# (§2) An additional plate containing a compound having known susceptibility patterns for the organisms being tested and belonging to the same antibiotic class as the test compound was also prepared and incubated as a further control, as well as to provide test-to-test comparability. Erythromycin A was used for this purpose.
# (§3) After incubation, each plate was visually inspected. The minimum inhibitory concentration (MIC) was defined as the lowest concentration of drug yielding no growth, a slight haze, or sparsely isolated colonies on the inoculum spot as compared to the growth control.
# [2] = tested on: Staphylococcus epidermidis 3519; settings: code HH: Staphylococcus epidermidis 3519; BHI agar, 35-37° C., 20 to 24 hours; unit assumed
# Method: as §1, §2, §3
# [3] = tested on: Staphylococcus aureus A-5278; settings: code CC: Staphylococcus aureus A-5278; BHI agar, 35-37° C., 20 to 24 hours; unit assumed
# Method: as §1, §2, §3
# [4] = tested on: Staphylococcus aureus A-5177; settings: code BB: Staphylococcus aureus A-5177; BHI agar, 35-37° C., 20 to 24 hours; unit assumed
# Method: as §1, §2, §3
# [5] = tested on: Streptococcus agalactiae CMX 508; settings: code KK: Streptococcus agalactiae CMX 508; BHI agar, 35-37° C., 20 to 24 hours; unit assumed
# Method: as §1, §2, §3
# [6] = tested on: Streptococcus Pneumonia 5649; settings: code ZA: Streptococcus Pneumonia 5649; BHI agar, 35-37° C., 20 to 24 hours; unit assumed
# Method: as §1, §2, §3
# Candida albicans CCH 442 = settings: code TT: Candida albicans CCH 442; BHI agar, 35-37° C., 20 to 24 hours; unit assumed
# Method: as §1, §2, §3
# [7] = tested on: Mycobacterium smegmatis ATCC 114; settings: code UU: Mycobacterium smegmatis ATCC 114; BHI agar, 35-37° C., 20 to 24 hours; unit assumed
# Method: as §1, §2, §3
# [8] = tested on: Staphylococcus aureus ATCC 6538P; settings: code AA: Staphylococcus aureus ATCC 6538P; BHI agar, 35-37° C., 20 to 24 hours; unit assumed
# Method: as §1, §2, §3
# [9] = tested on: Streptococcus Pneumonia GYR 1171; settings: code YY: Streptococcus Pneumonia GYR 1171; BHI agar, 35-37° C., 20 to 24 hours; unit assumed
# Method: as §1, §2, §3
# [10] = tested on: Streptococcus pyogenes 930; settings: code MM: Streptococcus pyogenes 930; BHI agar, 35-37° C., 20 to 24 hours; unit assumed
# Method: as §1, §2, §3
# Escherichiacoli JUHL = settings: code QQ: Escherichiacoli JUHL; BHI agar, 35-37° C., 20 to 24 hours; unit assumed
# Method: as §1, §2, §3
# [11] = tested on: Streptococcus bovis A-5169; settings: code JJ: Streptococcus bovis A-5169; BHI agar, 35-37° C., 20 to 24 hours; unit assumed
# Method: as §1, §2, §3
# [12] = tested on: Staphylococcus aureus 1775; settings: code GG: Staphylococcus aureus 1775; BHI agar, 35-37° C., 20 to 24 hours; unit assumed
# Method: as §1, §2, §3
# [13] = tested on: Streptococcus pyogenes EES61; settings: code LL: Streptococcus pyogenes EES61; BHI agar, 35-37° C., 20 to 24 hours; unit assumed
# Method: as §1, §2, §3
# [14] = tested on: Nocardia Asteroides ATCC 99700; settings: code VV: Nocardia Asteroides ATCC 99700; BHI agar, 35-37° C., 20 to 24 hours; unit assumed
# Method: as §1, §2, §3
# [15] = tested on: Micrococcusluteus ATCC 4698; settings: code PP: Micrococcusluteus ATCC 4698; BHI agar, 35-37° C., 20 to 24 hours; unit assumed
# Method: as §1, §2, §3
# [16] = tested on: Staphylococcus aureus NCTC 10649M; settings: code EE: Staphylococcus aureus NCTC 10649M; BHI agar, 35-37° C., 20 to 24 hours; unit assumed
# Method: as §1, §2, §3
# [17] = tested on: Haemophilislnfluenzae DILL AMP R; settings: code WW: Haemophilislnfluenzae DILL AMP R; BHI agar, 35-37° C., 20 to 24 hours; unit assumed
# Method: as §1, §2, §3
# Escherichiacoli SS = settings: code RR: Escherichiacoli SS; BHI agar, 35-37° C., 20 to 24 hours; unit assumed
# Method: as §1, §2, §3
# [18] = tested on: Streptococcus Pneumonia ATCC 6303; settings: code XX: Streptococcus Pneumonia ATCC 6303; BHI agar, 35-37° C., 20 to 24 hours; unit assumed
# Method: as §1, §2, §3
# [19] = tested on: Streptococcus Pneumonia 5979; settings: code ZZ: Streptococcus Pneumonia 5979; BHI agar, 35-37° C., 20 to 24 hours; unit assumed
# Method: as §1
# An additional plate containing a compound having known susceptibility patterns for the organisms being tested and belonging to the same antibiotic class as the test compound was also prepared and incubated as a further control, as well as to provide test-to-test comparability.
# as §3
SMILES,Antibacterial Activity (MIC) [1] [µg/mL],Antibacterial Activity (MIC) [2] [µg/mL],Antibacterial Activity (MIC) [3] [µg/mL],Antibacterial Activity (MIC) [4] [µg/mL],Antibacterial Activity (MIC) [5] [µg/mL],Antibacterial Activity (MIC) [6] [µg/mL],Antibacterial Activity (MIC) (Candida albicans CCH 442) [µg/mL],Antibacterial Activity (MIC) [7] [µg/mL],Antibacterial Activity (MIC) [8] [µg/mL],Antibacterial Activity (MIC) [9] [µg/mL],Antibacterial Activity (MIC) [10] [µg/mL],Antibacterial Activity (MIC) (Escherichiacoli JUHL) [µg/mL],Antibacterial Activity (MIC) [11] [µg/mL],Antibacterial Activity (MIC) [12] [µg/mL],Antibacterial Activity (MIC) [13] [µg/mL],Antibacterial Activity (MIC) [14] [µg/mL],Antibacterial Activity (MIC) [15] [µg/mL],Antibacterial Activity (MIC) [16] [µg/mL],Antibacterial Activity (MIC) [17] [µg/mL],Antibacterial Activity (MIC) (Escherichiacoli SS) [µg/mL],other results
"CCC1OC(=O)C(C)C(OC2CC(C)(OC)C(O)C(C)O2)C(C)C(OC2OC(C)CC(N(C)C)C2O)C(C)(OCC=Cc2cnc3ccccc3c2)CC(C)CN(C)C(C)C(O)C1(C)O (centres unmarked) [Example 7, Compound of formula (I): R^1 is —CH2CH═CH-(3-quinolinyl), R^4 is hydrogen, R^5 is hydrogen, R^6 is methyl, R^7 is hydrogen, R^8 is hydrogen]",6.2,0.2,> 100,3.1,0.1,16,> 100,6.2,0.1,0.12,> 100,100,0.1,> 100,0.05,0.05,0.2,0.39,8,0.39,Antibacterial Activity (MIC) [18]: 0.12 µg/mL; Antibacterial Activity (MIC) [19]: > 128 µg/mL
"C=CCOC1(C)CC(C)CNC(C)C(O)C(C)(O)C(CC)OC(=O)C(C)C(OC2CC(C)(OC)C(O)C(C)O2)C(C)C1OC1OC(C)CC(N(C)C)C1O (centres unmarked) [Example 2, Compound of formula (I): R^1 is —CH2CH═CH2, R^4 is hydrogen, R^5 is hydrogen, R^6 is hydrogen, R^7 is hydrogen, R^8 is hydrogen]",6.2,0.2,> 100,12.5,0.05,16,> 100,6.2,0.2,0.06,> 100,50,0.02,> 100,0.05,0.1,0.39,0.39,8,0.78,Antibacterial Activity (MIC) [18]: 0.06 µg/mL; Antibacterial Activity (MIC) [19]: > 128 µg/mL
"CC[C@H]1OC(=O)[C@H](C)[C@@H](O[C@H]2C[C@@](C)(OC)[C@@H](O)[C@H](C)O2)[C@H](C)[C@@H](O[C@@H]2O[C@H](C)C[C@H](N(C)C)[C@H]2O)[C@](C)(O)C[C@@H](C)C(=O)[C@H](C)[C@@H](O)[C@]1(C)O [Ery. A, Erythromycin A, reference compound]",6.2,0.39,> 100,3.1,0.05,16,> 100,3.1,0.2,0.06,> 100,> 100,0.02,> 100,0.05,0.1,0.2,0.39,4,0.78,Antibacterial Activity (MIC) [18]: 0.06 µg/mL
